# According to patent US20030144233A1, “Conformation-activity relationship of apoptosis-inducing phosphodiester oligonucleotides” (priority 2001, published 2003):
# System: Human Jurkat T cell leukemia cells
# Experiment: Analysis of apoptosis by Annexin V FITC / propidium iodide staining and flow cytometry
# Format: cell-based
# Details: Jurkat T cells, oligonucleotides at final concentration of 53 μM; Table 1
# Procedure: Human Jurkat T cell leukemia cells were obtained from the American Type Culture Collection (Rockville, Md.). The Jurkat T cells were maintained RPMI 1640 medium, supplemented with 10% heat-inactivated (56° C., 30 min) fetal bovine serum (all from Sigma Aldrich, Canada) in an atmosphere of 5% CO2 at 37° C. Cells were seeded at 2×10^5 cells/ml medium in 6-well float-bottomed tissue culture plates and incubated with oligonucleotides at a final concentration of 53 μM.
# Apoptosis was measured by staining cells with Annexin V FITC and propidium iodide (PI) (BD Pharmingen, San Diego, Calif. USA) according to the manufacturer's instructions. Flow Cytometry (FCM) determined cellular fluorescence. The FCM and data analysis were carried out using a FACSCalibur instrument (excitation 488 nm, emission 530 nm for Annexin-V and 580 nm for PI) using the program CELLQuest.
row,Sequence,Apoptosis (%)
1,GGGGGG,4
2,CCGTCC,5
3,GGGCGG,17
4,CTGTCT,14
5,TCGTTC,9.5

# Same assay, conditions: Jurkat T cells, oligonucleotides at final concentration of 53 μM; Table 2
row,Sequence,% apoptosis [%]
1,ATGTAT,37
2,AAGTAA,23
3,GGCCGG,21

# Same assay, conditions: Jurkat T cells, oligonucleotides at final concentration of 53 μM; Table 3
row,Sequence,% apoptosis [%]
1,TGGTTG,69
2,GGTTGG,66
3,GGAAGG,59
4,TGTGTG,66
5,GTGTGT,67
6,GGGTGG,50

# Same assay, conditions: new sequences tested in vitro after prediction; Table 4
row,Sequence,ACTUAL % OF CELLS IN APOPTOSIS [%]
1,GGGAG,73

# Same assay, conditions: phosphodiester versus phosphorothioate backbone
row,Sequence,apoptosis-inducing activity [%]
1,GGGTGG,50
